# Test results reported in patent US20050241012A1, “Multigene profiling in the kidney to tailor drug therapy” (priority 2003, published 2005).
# “Also recorded” adds a separate entry of the source. Where a name gives a salt, the structure may show the parent alone.
# Assays:
# renal slices = assay: Renal tissue slice uptake assay, wild-type and Oat3−/− mice; settings: for inhibition of taurocholate, estrone sulfate and para-aminohippurate uptake in wild-type renal slices / ES transport in Oat3−/− renal slices in the presence of inhibitor: 1 mM inhibitor; for ES transport in Oat3−/− renal slices in the presence of inhibitor / renal slice uptake in Oat3−/− mice compared with wild-type: 100 nM estrone sulfate; for renal slice uptake in Oat3−/− mice compared with wild-type: 1 h, taurocholate or para-aminohippurate
# Procedure: (§1) Data were calculated as tissue to medium T/M ratios and are presented as mean values ±S. E. (3 slices, treatment).
# (§2) Renal and hepatic tissue slice preparation and uptake assays were performed according to standard protocols. Four- to 6-month-old mice were euthanized by CO2 inhalation, and the liver and kidneys were immediately placed into freshly oxygenated ice-cold saline. Tissue slices (˜0.5 mm; ˜5-10 mg, wet weight) were cut with a Stadie-Riggs microtome and maintained in ice-cold modified Cross and Taggart saline (in mM: 95 NaCl, 80 mannitol, 5 KCl, 0.74 CaCl2, and 9.5 Na2PO4, pH 7.4). […] Conditions for the PAH experiments were optimized for Oat1 by the addition of 10 μM glutarate to the uptake buffer. After incubation the slices were removed from the uptake medium, blotted, weighed, dissolved in 1 ml of 1M NaOH, neutralized with 1 ml of 1M HCl, and assayed by liquid scintillation spectroscopy. Duplicate medium samples (50 μl) were also assayed, and data are presented as tissue to medium (T/M) ratios (i.e. dpm/mg of tissue divided by dpm/μl of medium).
# Statistics. The renal slice data were compared using unpaired Student's t-test. Differences in mean values between the control and inhibited conditions were considered significant when p≦0.05.
# choroid plexus = assay: Accumulation in isolated choroid plexus, confocal fluorescence microscopy, wild-type and Oat3−/− mice; settings: for reduction of cellular accumulation (cellular fluorescence) in CP from Oat3−/− mice: both, mouse, 45 min, 1 μM, pH 7.4
# Text: The CP is composed of capillary projections surrounded by a single layer of cells that protrude into the cerebrospinal fluid-filled ventricles of the brain. The orientation is such that the CSF bathes the apical membrane of the cell and the basal membrane is toward the underlying fenestrated capillary. (A and C) Transmitted light images of wild-type and Oat3^−/− CP, respectively, showing the tissue structure. (B and D) Corresponding fluorescence micrographs of the CP shown in (A) and (C). Confocal images were acquired 45 min after exposure to 1 μM FL in the aCSF medium. […] The positions of representative cells and capillaries (CUD) are indicated by arrows. A 20-μm bar is shown.
# Fluorescence levels in cells and vessels of CP from 4 wild-type and 4 Out3^−/− mice were measured (n=5-10 adjacent cellular and capillary areas/CP). […] Data are given as mean ±S.E. for each animal.
# Choroid plexus isolation. Adult male and female wild-type and Oat3^−/− mice were euthanized with CO2.
# Confocal Fluorescence Microscopy. CP were imaged as using an inverted Zeiss model 510 laser scanning confocal microscope fitted with a 40μ water immersion objective (numeric aperture, 1.2). Samples were illuminated with the 488-nm line of an argon laser; a 510-nm dichroic filter was in the light path, and a long pass emission filter (515 nm) was positioned in front of the detector. […] For each CP, 5-10 adjacent cellular and capillary areas were selected. After background subtraction, the average pixel intensity for each area was calculated and the values reported graphically for each CP are the means ±S.E. for all selected areas (n˜5-10). Values reported in the text are mean ±S.E. of the individual mean values for each CP as determined above (n˜4-6 animals/group).
# hepatic slices = assay: Hepatic tissue slice uptake assay, wild-type and Oat3−/− mice; settings: 1 h
# Procedure: as §1, §2
# mouse Oat3 = biological target: T1, mouse Oat3 (Mus musculus, UniProt O88909); settings: 90 nM [3H]estrone sulfate
# T1 sequence (O88909 1-537): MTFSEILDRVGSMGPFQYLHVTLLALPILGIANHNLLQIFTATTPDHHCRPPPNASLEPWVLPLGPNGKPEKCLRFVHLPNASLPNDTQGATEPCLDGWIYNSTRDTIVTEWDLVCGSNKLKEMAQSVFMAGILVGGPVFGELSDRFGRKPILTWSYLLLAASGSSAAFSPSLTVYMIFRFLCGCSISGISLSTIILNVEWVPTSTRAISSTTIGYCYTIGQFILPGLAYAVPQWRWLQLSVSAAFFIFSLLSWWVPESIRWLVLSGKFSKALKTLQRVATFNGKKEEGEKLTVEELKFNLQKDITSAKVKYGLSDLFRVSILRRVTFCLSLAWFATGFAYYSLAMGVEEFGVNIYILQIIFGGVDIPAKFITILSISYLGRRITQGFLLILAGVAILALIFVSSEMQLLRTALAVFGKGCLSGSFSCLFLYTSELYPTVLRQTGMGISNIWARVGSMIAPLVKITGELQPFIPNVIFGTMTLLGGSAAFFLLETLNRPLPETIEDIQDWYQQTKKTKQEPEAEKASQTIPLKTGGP
# Procedure: FIG. 13 oocytes three days after injection with either mouse Oat1 or mouse Oat3 cRNA. Oocytes were randomly sorted into test groups and 1 h uptake determined.
# Transport Assays-Xenopus oocyte isolation procedures and uptake assay. Ovaries were removed from tricaine methanesulfonate anesthetized adult female Xenopus laevis and follicle-free stage V and stage VI oocytes were isolated by treatment with collagenase A. After an overnight recovery period in Barth's buffer at 18° C., oocytes were microinjected with 20 ng of capped cRNA synthesized from linearized cDNA (mMessage mMachine in vitro transcription kit, Ambion, Inc., Austin, Tex.). […] Oocyte radioactivity was measured in disintegrations/min (dpm) in a Packard 1600TR liquid scintillation counter with external quench correction.
smiles,measurement,setting,value
"O=C1OC(c2ccc(O)c(S(=O)(=O)O)c2)(c2ccc(O)c(S(=O)(=O)O)c2)c2c(Br)c(Br)c(Br)c(Br)c21 [BSP, bromo-sulfophthalein]","inhibition of taurocholate, estrone sulfate and para-aminohippurate uptake in wild-type renal slices",renal slices,sensitive to inhibition
same,ES transport in Oat3−/− renal slices in the presence of inhibitor,renal slices,additional drop
"O=C1OC2(c3ccc(O)cc3Oc3cc(O)ccc32)c2ccccc21 [FL, fluorescein]",reduction of cellular accumulation (cellular fluorescence) in CP from Oat3−/− mice,choroid plexus; C57BL/6J,~75%
same,reduction of cellular accumulation (cellular fluorescence) in CP from Oat3−/− mice,choroid plexus,about 75%
"Nc1ccc(C(=O)NCC(=O)O)cc1 [PAH, para-aminohippurate]",hepatic slice uptake,hepatic slices,complete lack
same,mediated uptake in Oat3-expressing oocytes,"mouse Oat3; 1 h uptake, 10 μM [3H]PAH, 500 nM [3H]taurocholate",observed
same,renal slice uptake in Oat3−/− mice compared with wild-type,renal slices; 10 μM TEA,significant (p<0.001) decrease; also recorded: significantly reduced
"C=C[C@H]1C[N@@]2CC[C@H]1C[C@H]2[C@H](O)c1ccnc2ccc(OC)cc12 [Quinine sulfate, quinine sulfate]",inhibition of renal uptake of [14C]TEA,"renal slices; 200 μM quinine sulfate, 10 μM TEA",sensitive
"CC[N+](CC)(CC)CC [TEA, tetraethylammonium]",renal slice uptake in Oat3−/− mice compared with wild-type,renal slices; 10 μM TEA,unaltered; also recorded: unaffected
CCCN(CCC)S(=O)(=O)c1ccc(C(=O)O)cc1 [probenecid],inhibition of residual FL uptake in CP from Oat3 knockout animals,choroid plexus,probenecid-sensitive
same,inhibition of Oat3-mediated ES transport in oocytes,mouse Oat3; 1 mM probenecid,completely blocked
same,"inhibition of taurocholate, estrone sulfate and para-aminohippurate uptake in wild-type renal slices",renal slices,sensitive to inhibition
same,ES transport in Oat3−/− renal slices in the presence of inhibitor,renal slices,additional drop
